Results: ChEMBL document CHEMBL1201862, “PubChem BioAssay data set” (2004)
Active and inactive are the calls of the source.

How the values were obtained:
[1] = target: T1, Replicative DNA helicase DnaB (Mycobacterium tuberculosis, UniProt P9WMR3); test: DnaB intein splicing inhibitors, dose response, biochemical, cell-free fluorescence (AID 449749); format: functional
T1 sequence (P9WMR3 whole entry): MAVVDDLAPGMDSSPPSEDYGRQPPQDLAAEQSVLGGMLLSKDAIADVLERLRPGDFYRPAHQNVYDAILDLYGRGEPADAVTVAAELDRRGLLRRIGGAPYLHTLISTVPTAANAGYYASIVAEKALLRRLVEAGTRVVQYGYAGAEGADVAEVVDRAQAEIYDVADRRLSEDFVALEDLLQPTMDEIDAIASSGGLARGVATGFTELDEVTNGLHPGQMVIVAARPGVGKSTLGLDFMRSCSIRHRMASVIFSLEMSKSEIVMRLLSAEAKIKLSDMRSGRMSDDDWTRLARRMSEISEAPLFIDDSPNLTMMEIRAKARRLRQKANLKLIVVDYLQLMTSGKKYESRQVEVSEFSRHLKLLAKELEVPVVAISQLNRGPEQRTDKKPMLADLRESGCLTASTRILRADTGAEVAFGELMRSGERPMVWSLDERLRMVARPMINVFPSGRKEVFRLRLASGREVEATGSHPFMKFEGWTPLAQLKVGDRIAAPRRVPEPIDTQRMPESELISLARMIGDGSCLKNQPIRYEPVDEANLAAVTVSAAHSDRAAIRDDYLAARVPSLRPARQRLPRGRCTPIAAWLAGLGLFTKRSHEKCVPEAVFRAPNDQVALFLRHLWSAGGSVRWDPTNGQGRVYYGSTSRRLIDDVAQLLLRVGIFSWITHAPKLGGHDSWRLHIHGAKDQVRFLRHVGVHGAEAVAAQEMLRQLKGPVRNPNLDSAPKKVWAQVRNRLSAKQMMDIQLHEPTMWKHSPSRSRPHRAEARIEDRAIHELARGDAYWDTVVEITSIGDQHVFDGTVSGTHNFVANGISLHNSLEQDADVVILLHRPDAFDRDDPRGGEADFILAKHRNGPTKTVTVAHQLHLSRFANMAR

[2] = target: T2, Apoptotic protease-activating factor 1 (Homo sapiens, UniProt O14727); format: functional
T2 sequence (O14727 whole entry): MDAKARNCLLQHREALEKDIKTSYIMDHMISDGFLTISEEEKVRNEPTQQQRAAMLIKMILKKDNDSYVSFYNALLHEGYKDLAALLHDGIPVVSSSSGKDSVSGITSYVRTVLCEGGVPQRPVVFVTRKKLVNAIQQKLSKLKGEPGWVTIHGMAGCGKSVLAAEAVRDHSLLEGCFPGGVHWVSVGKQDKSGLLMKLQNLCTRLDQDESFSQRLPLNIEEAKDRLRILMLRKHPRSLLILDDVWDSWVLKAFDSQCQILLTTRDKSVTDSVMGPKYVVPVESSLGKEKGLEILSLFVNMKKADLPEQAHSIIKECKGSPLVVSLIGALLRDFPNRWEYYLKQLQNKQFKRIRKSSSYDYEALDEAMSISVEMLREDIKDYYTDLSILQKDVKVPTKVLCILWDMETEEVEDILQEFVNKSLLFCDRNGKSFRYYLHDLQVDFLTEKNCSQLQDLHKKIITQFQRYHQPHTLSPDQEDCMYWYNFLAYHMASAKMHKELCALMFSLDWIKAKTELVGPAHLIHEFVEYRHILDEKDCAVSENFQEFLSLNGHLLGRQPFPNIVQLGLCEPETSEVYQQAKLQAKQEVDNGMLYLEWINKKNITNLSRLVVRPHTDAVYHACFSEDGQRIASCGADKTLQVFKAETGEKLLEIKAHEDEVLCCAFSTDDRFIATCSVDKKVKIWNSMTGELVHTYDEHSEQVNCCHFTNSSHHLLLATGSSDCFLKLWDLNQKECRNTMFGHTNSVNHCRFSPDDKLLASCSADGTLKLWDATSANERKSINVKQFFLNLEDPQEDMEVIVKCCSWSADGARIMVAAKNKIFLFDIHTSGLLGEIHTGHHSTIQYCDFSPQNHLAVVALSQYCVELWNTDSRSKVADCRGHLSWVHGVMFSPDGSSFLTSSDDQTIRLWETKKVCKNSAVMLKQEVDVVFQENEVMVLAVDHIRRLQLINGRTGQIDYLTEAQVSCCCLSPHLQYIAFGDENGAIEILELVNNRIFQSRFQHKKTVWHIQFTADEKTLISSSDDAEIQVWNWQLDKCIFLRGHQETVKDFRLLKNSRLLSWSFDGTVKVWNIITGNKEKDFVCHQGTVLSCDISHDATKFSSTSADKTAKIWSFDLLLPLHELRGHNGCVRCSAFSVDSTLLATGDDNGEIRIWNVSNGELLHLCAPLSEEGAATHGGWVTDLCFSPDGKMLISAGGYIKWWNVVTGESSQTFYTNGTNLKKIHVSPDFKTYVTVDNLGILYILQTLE

INS1 = test: beta cell apoptosis inhibitors, cytokine rescue, dose response, luminescence, retest (AID 449756); format: functional, cell-based; details: Rattus norvegicus;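 also: cell death triggered by IL-1 beta plus TNF-alpha plus IFN-gamma mixture; protective hits raise ATP signal compared with cytokine alone wells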
[3] = inhibitors of intracellular T. cruzi replication, confirmation, NIH3T3 host cells, beta-gal luminescence (AID 2044); format: functional, cell-based;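 also: intracellular parasites grown in NIH/3T3 mouse fibroblasts as host cells; luminescent beta-galactosidase reporter signal from transgenic T. cruzi replicating inside host cells; inhibitors lower the luminescence signal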
[4] = target: T3, Tyrosyl-DNA phosphodiesterase 2 (Homo sapiens, UniProt O95551); test: human TDP2 enzyme inhibitors, dose response, biochemical, epi absorbance, IC50 (AID 743297)
T3 sequence (O95551 whole entry): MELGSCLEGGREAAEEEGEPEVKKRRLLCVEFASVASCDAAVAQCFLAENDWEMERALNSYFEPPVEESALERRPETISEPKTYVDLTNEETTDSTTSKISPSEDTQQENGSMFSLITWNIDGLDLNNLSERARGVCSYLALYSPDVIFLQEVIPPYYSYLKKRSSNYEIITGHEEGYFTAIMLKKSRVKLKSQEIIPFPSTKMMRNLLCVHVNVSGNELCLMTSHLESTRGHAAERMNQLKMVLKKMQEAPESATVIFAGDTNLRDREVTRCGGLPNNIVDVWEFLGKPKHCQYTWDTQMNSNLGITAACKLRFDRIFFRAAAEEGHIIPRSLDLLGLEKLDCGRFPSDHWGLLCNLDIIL

[5] = target: Dual specificity tyrosine-phosphorylation-regulated kinase 1A (Rattus norvegicus, UniProt Q63470); format: biochemical, Homo sapiens
[6] = cytotoxicity toward NIH3T3 fibroblasts, dose response, counter-screen, cell-based, ATP luminescence, mouse fibroblasts (AID 2010); format: functional;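 also: cells exposed to compound for about 90 hours before reading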
Protein RecA = target: T4, Protein RecA (Mycobacterium tuberculosis, UniProt P9WHJ3); test: Fluorescence Cell-Free Homogeneous Dose Retest to Identify Inhibitors of RecA-Intein Splicing Activity. [Related pubchem assays (depositor defined):AID2097, AID2223, AID489010, AID492950]; format: functional
T4 sequence (P9WHJ3 whole entry): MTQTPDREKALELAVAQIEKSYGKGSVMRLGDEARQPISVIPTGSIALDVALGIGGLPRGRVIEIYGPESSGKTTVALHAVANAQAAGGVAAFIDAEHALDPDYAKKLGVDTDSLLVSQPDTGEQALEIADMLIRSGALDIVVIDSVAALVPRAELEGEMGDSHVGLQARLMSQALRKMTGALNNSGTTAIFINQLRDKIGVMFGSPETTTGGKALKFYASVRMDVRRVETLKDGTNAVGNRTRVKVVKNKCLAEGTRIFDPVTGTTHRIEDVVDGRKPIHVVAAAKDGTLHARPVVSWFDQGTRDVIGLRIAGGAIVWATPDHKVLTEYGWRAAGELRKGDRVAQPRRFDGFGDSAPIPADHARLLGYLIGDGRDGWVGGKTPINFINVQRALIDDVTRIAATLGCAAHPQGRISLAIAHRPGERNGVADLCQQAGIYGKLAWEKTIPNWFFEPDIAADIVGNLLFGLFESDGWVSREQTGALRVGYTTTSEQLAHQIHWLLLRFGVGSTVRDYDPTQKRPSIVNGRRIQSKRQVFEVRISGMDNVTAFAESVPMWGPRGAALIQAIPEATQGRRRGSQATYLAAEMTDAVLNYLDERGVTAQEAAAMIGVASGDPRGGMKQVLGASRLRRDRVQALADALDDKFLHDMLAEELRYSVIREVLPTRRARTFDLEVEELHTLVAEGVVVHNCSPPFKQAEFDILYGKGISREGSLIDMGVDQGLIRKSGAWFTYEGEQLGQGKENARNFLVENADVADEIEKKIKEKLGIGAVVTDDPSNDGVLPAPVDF

Caspase-6 = target: T5, Caspase-6 (Homo sapiens, UniProt P55212); test: human caspase-6 inhibitors, dose response, biochemical, VEID-R110 fluorescence, cherry-pick (AID 720632)
T5 sequence (P55212 whole entry): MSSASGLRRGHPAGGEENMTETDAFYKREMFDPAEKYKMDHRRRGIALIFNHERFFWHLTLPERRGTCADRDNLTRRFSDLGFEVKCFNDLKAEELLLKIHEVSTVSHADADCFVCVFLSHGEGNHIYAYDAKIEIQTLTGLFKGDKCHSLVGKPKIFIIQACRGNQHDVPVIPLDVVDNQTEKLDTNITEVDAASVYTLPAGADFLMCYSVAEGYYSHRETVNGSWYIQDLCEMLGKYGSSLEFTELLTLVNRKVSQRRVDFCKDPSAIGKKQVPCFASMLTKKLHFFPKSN

Genome polyprotein = Genome polyprotein (dengue virus type 2, UniProt P29990); test: Dengue-2 NS5 methyltransferase inhibitors, primary screen, biochemical, confirmation dose response (AID 588689); format: functional
Paired box protein Pax-8 = Paired box protein Pax-8 (Homo sapiens, UniProt Q06710); test: inhibitors of PAX8-driven TPO luciferase reporter, dose response, RMG-I cells, cherry-pick (AID 687027); format: functional, cell-based;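 also: luciferase reporter driven by Pax8 target thyroperoxidase promoter measured by SteadyGlo luminescence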
[7] = target: T6, Rac GTPase-activating protein 1 (Homo sapiens, UniProt Q9H0H5); test: MgcRacGAP GTPase-activating activity inhibitors, confirmation, biochemical, ADP Hunter fluorescence, primary and confirmatory (AID 624330); format: functional
T6 sequence (Q9H0H5 whole entry): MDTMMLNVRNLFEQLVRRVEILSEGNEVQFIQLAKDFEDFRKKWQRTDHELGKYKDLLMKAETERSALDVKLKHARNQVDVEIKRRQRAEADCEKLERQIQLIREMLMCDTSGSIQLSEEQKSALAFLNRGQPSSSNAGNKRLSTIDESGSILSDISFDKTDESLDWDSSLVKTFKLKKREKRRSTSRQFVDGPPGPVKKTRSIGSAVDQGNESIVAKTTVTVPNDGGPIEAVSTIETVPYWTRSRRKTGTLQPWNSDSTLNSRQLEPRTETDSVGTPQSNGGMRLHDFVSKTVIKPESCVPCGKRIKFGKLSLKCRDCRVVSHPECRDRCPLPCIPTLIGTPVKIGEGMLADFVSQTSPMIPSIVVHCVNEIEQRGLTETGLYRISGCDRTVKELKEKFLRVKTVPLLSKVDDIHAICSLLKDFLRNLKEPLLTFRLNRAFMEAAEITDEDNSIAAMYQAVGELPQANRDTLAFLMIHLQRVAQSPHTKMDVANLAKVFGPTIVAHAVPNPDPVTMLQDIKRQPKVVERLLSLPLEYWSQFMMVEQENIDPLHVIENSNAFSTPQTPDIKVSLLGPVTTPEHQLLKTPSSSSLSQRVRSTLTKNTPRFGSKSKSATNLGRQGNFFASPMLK

HEK293 = test: inhibitors of LMP1-driven NF-kB reporter, dose response, cell-based, HEK293, luciferase, cherry-pick (AID 588343); format: functional; details: Homo sapiens
[8] = target: T7, Endoribonuclease toxin MazF (Escherichia coli K-12, UniProt P0AE70); test: fluorescent RNA oligo signal without MazF, dose response, counter-screen for MazEF activator project, biochemical, fluorescence, single-stranded RNase substrate (AID 588502); format: functional
T7 sequence (P0AE70 whole entry): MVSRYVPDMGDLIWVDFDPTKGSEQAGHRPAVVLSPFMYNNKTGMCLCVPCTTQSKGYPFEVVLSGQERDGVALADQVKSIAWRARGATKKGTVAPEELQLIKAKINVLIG

[9] = target: T7, Endoribonuclease toxin MazF; test: MazF toxin RNase activators, dose response, biochemical, fluorescence, single-stranded RNA substrate, uHTS hits (AID 588481); format: functional

Chain of Paired box protein Pax-8 (Q06710 whole entry): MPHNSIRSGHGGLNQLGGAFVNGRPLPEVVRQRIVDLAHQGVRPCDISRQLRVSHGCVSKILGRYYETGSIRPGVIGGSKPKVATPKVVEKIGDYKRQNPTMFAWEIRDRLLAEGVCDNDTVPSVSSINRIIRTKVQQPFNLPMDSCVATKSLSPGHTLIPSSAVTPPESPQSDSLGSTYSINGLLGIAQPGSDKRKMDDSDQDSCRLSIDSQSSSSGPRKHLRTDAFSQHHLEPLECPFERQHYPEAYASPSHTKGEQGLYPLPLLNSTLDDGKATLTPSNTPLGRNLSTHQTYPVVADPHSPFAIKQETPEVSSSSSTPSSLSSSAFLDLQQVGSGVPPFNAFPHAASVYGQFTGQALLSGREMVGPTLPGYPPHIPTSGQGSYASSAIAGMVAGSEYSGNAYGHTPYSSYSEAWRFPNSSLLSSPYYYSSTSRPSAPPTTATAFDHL
Chain of Genome polyprotein (P29990 2492-3391 limits assumed): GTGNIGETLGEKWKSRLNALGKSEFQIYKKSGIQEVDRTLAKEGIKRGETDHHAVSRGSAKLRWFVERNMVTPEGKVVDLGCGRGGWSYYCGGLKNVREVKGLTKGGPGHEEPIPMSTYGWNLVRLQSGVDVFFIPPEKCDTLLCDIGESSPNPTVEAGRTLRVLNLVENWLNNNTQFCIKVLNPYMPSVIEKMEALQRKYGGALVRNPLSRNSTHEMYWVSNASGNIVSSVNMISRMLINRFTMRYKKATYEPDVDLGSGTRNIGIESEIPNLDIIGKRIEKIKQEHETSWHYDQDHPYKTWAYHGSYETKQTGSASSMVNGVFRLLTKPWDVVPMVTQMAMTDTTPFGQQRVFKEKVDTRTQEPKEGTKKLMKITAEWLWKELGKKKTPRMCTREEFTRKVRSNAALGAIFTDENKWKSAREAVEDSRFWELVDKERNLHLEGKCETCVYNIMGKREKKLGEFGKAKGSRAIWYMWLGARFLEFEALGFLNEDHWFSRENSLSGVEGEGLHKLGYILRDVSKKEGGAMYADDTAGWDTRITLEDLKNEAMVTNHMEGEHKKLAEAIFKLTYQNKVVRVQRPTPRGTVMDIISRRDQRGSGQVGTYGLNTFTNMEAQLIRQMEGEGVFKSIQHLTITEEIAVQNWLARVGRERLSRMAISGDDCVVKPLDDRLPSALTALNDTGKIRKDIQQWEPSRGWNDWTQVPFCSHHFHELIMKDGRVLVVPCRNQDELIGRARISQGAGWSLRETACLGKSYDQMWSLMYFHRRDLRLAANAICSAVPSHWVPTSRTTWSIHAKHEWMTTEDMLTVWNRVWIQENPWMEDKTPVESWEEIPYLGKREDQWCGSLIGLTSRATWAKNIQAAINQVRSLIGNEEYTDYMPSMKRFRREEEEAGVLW

Cc1ccc(NC2=C(N3CCCCC3)C(=O)c3ccccc3C2=O)cc1
AC50 [1]: 7.31 µM (active) | IC50 [2]: 4.88 µM (active) | AC50 (INS1): 0.489 µM (active) | EC50 [3]: 0.629 µM (active) | IC50 [4]: > 128 µM (inactive) | AC50 [5]: 11 µM (active) | EC50 [6]: > 30 µM (not active) | EC50 (Protein RecA): 0.619 µM (active)

Nc1nc(Sc2ccc([N+](=O)[O-])c3nonc23)c2[nH]cnc2n1
AC50 (Caspase-6): 5.68 µM (active) | IC50 (Genome polyprotein): 16 µM (active) | AC50 (Paired box protein Pax-8): 2.17 µM (active) | IC50 [7]: 49.7 µM (active)

CC(C)Nc1nnc(SCC(=O)c2c(N)n(Cc3ccccc3)c(=O)n(C)c2=O)s1
AC50 (HEK293): 101 µM (active)

Cc1ccc(-n2nnnc2SCC(=O)c2c(N)n(C3CC3)c(=O)[nH]c2=O)cc1C
EC50 [8]: > 99 µM (inactive) | EC50 [9]: > 99 µM (inactive)
